# Literature values, collected in patent US8841334B2, “Compounds as cannabinoid receptor ligands and uses thereof” (priority 2006, dated 2014).
# Assays:
# animal models = animal models of acute thermal pain, persistent pain, inflammatory pain and neuropathic pain
# rodent models = rodent models of neuropathic, incisional, and both chronic and acute inflammatory pain
# rat = rat formalin model of persistent pain
# [1] = system: microglial activation and neurotoxicity; conditions: in vitro
# [2] = system: apolipoprotein E knockout mice
# mice = conditions: model for post-menopausal osteoporosis
molecule,measurement,setting,value
CN1CCCCC1Cn1cc(C(=O)c2cc([N+](=O)[O-])ccc2I)c2ccccc21 (stereo not drawn) [AM-1241],analgesic efficacy,animal models,robust analgesic efficacy
COc1ccc2c(c1)c(CCN1CCOCC1)c(C)n2C(=O)c1cccc(Cl)c1Cl [GW405833],efficacy in pain models,rodent models,efficacious
CCCCCCC(C)(C)c1cc(OC)c([C@@H]2C=C(CO)[C@@H]3C[C@H]2C3(C)C)c(OC)c1 [HU-308],antinociceptive response,rat,elicits an antinociceptive response
CCCC(C)(C)c1ccc2c(c1)OC(C)(C)[C@@H]1CC=C(C)C[C@@H]21 [JWH-133],[…]-amyloid-induced microglial activation and neurotoxicity,[1],abrogated
(−)-Δ^9-Tetrahydrocannabinol [THC],progression of atherosclerotic lesions,[2]; low doses,slowed the progression of atherosclerotic lesions
SR144528,block of the effects of JWH-133 on microglial activation and neurotoxicity,[1],blocked
same,osteoclast activity,osteoclast activity,inhibit osteoclast activity
same,ovariectomy-induced bone loss,mice,reverse ovariectomy-induced bone loss
same,inhibition of the effects of THC on atherosclerotic lesions,"[2]; mouse, in vivo",inhibited
